Assay results: patent US20050267073A1, “Triheterocyclic compounds, compositions, and methods for treating cancer or viral diseases” (priority 2004, published 2005)
Counter-ions that a name gives are not always drawn.

Experiments:
[1] = tested on: H1299 human non-small cell lung cancer cells; assay: Cell viability by cellular ATP levels (ViaLight), H1299 cells; assay type: cell-based; settings: Homo sapiens, NCI-H1299; H1299; cellular ATP levels as described in Example 2; read-out: IC50 (μM) H1299, Effect on Cancer Cells Viability
From the text: (§1) […]. […] […]. The total dimethyl sulfoxide on the cells was 1%. […] […].
(§2) As depicted in Table 4, these compounds were efficient in decreasing cellular ATP levels in HI 299 and C33A cancer cell lines. Nevertheless, these compounds are believed to have utility in the in vivo methods of the invention, i.e., treatment and prevention of cancer and viral infections, respectively. It should be noted that, although this cell-based assay is believed to be indicative of anti-oncogenic activity in vivo, it is not the only useful assay for evaluating the anti-oncogenic activity of Triheterocyclic Compounds of the invention. In addition, the anti-viral and other biological activity of compounds of the invention can be determined and evaluated in other assay systems known to the skilled artisan.

[2] = tested on: C33A cervical carcinoma cells; assay: cells; assay type: cell-based; settings: Homo sapiens, C-33-A; C33A; cellular ATP levels as described in Example 2; read-out: IC50 (μM) C33A, Effect on Cancer Cells Viability
From the text: as §1, §2

Structure (SMILES)	IC50 [1] [µM]	IC50 [2] [µM]
COC1=CC(c2cc3ccccc3n2Cc2ccc(O)cc2)=N/C1=C\c1[nH]c(C)cc1C [Compound 58, 4-{2-(5-(3,5-Dimethyl-1H-pyrrol-2-ylmethylene)-4-methoxy-5H-pyrrol-2-yl]-indol-1-ylmethyl}-phenol]	1.97	1.32
COC1=CC(c2cc3ccccc3[nH]2)=N/C1=C\c1[nH]ccc1OC [Compound 3, 2-[4-Methoxy-5-(3-methoxy-1H-pyrrol-2-ylmethylene)-5H-pyrrol-2-yl]-1H-indole]	0.3	0.52
Cc1cc(C)c(/C=C2/N=C(c3cc4cc(F)ccc4[nH]3)C=C2OC(C)C)[nH]1 [Compound 42, 2-[5-(3,5-Dimethyl-1H-pyrrol-2-ylmeythylene)-4-isopropoxy-5H-pyrrol-2-yl]-5-fluoro-1H-indole]	0.458	0.358
COC1=CC(c2cc3cc(OC)c(OC)cc3n2C(=O)OC(C)(C)C)=N/C1=C\c1[nH]c(C)cc1C [Compound 5, 2-[5-(3,5-Dimethyl-1H-pyrrol-2-ylmethylene)-4-methoxy-5H-pyrrol-2-yl]-5,6-dimethoxy-indole-1-carboxylic acid tert-butyl ester]	2.26	2.24
Cc1cc(C)c(/C=C2\N=C(c3cc4ccccc4[nH]3)C=C2O)[nH]1 [Compound 50, 2-(3,5-Dimethyl-1H-pyrrol-2-ylmethylene)-5-(1H-indol-2-yl)-2H-pyrrol-3-ol]	1.21	0.509
Cc1cc(C)c(/C=C2\N=C(c3cc4ccc(F)cc4[nH]3)C=C2OC(C)C)[nH]1 [Compound 45, 2-[5-(3,5-Dimethyl-1H-pyrrol-2-ylmethylene)-4-isopropoxy-5H-pyrrol-2-yl]-6-fluoro-1H-indole]	0.887	0.716
COC1=CC(c2cc3ccccc3n2C(=O)Nc2ccc(N(C)C)cc2)=N/C1=C\c1[nH]c(C)cc1C [Compound 52, 2-[5-(3,5-Dimethyl-1H-pyrrol-2-ylmethylene)-4-methoxy-5H-pyrrol-2-yl]-indole-1-carboxylic acid (4-dimethylamino-phenyl)-amide]	1.04	1.11
COC1=CC(c2cc3ccccc3[nH]2)=N/C1=C(\C)c1[nH]c(C)cc1C [Compound 47, 2-{5-[1-(3,5-Dimethyl-1H-pyrrol-2-yl)-ethylidene]-4-methoxy-5H-pyrrol-2-yl)-1H-indole]	9.65	8.28
Cc1cc(C)c(/C=C2\N=C(c3cc4ccc(O)cc4[nH]3)C=C2OC(C)C)[nH]1 [Compound 56, 2-[5-(3,5-Dimethyl-1H-pyrrol-2-ylmethylene)-4-isopropoxy-5H-pyrrol-2-yl]-1H-indol-6-ol]	5.96	2.54
COC1=CC(c2cc3cc(OC)ccc3n2C(=O)OC(C)(C)C)=N/C1=C\c1[nH]c(C)cc1C [Compound 30, 2-[5-(3,5-Dimethyl-1H-pyrrol-2-ylmethylene)-4-methoxy-5H-pyrrol-2-yl]-5-methoxy-indole-1-carboxylic acid tert-butyl ester]	50	50
COC1=CC(c2cc3ccccc3n2CCOS(=O)(=O)O)=N/C1=C\c1[nH]c(C)cc1C [Compound 65, Sodium salt of Sulfuric acid mono-(2-{2-[5-(3,5-dimethyl-1H-pyrrol-2-ylmethylene)-4-methoxy-5H-pyrrol-2-yl]-indol-1-yl}-ethyl) ester]	7.89	5.97
COC1=CC(c2cc3cc(OC)ccc3[nH]2)=N/C1=C\c1[nH]c(C)cc1C [Compound 15, 2-[5-(3,5-Dimethyl-1H-pyrrol-2-ylmethylene)-4-methoxy-5H-pyrrol-2-yl]-5-methoxy-1H-indole]	0.935	1.44
COC1=CC(c2cc3ccccc3n2C(=O)N(C)C)=N/C1=C\c1[nH]c(C)cc1C [Compound 39, 2-[5-(3,5-Dimethyl-1H-pyrrol-2-ylmethylene)-4-methoxy-5H-pyrrol-2-yl]-indole-1-carboxylic acid dimethylamide]	5.67	2.95
COC1=CC(c2cc3ccccc3n2C(=O)Nc2ccc(OCc3ccccc3)cc2)=N/C1=C\c1[nH]c(C)cc1C [Compound 54, 2-[5-(3,5-Dimethyl-1H-pyrrol-2-ylmethylene)-4-methoxy-5H-pyrrol-2-yl]-indole-1-carboxylic acid (4-benzyloxy-phenyl)-amide]	0.187	0.145
COc1cccc(COC2=CC(c3cc4ccccc4[nH]3)=N/C2=C\c2[nH]c(C)cc2C)c1 [Compound 51, 2-[5-(3,5-Dimethyl-1H-pyrrol-2-ylmethylene)-4-(3-methoxy-benzyloxy)-5H-pyrrol-2-yl]-1H-indole]	0.202	0.165
COC1=CC(c2cc3ccccc3n2C(=O)c2ccccc2)=N/C1=C/c1[nH]c(C)cc1C [Compound 43, {2-[5-(3,5-Dimethyl-1H-pyrrol-2-ylmethylene)-4-methoxy-5H-pyrrol-2-yl]-indol-1-yl}-phenyl-methanone]	0.298	0.196
Cc1cc(C)c(/C=C2\N=C(c3cc4ccc(Cl)cc4[nH]3)C=C2OC(C)C)[nH]1 [Compound 46, 6-Chloro-2-[5-(3,5-dimethyl-1H-pyrrol-2-ylmethylene)-4-isopropoxy-5H-pyrrol-2-yl]-1H-indole]	0.245	0.261

Further lines, results first:

IC50 [1] [µM]	IC50 [2] [µM]	Structure (SMILES)
0.267	0.19	COC1=CC(c2[nH]c3ccccc3c2CN2CCOCC2)=N/C1=C\c1[nH]c(C)cc1C [Compound 6, 2-[5-(3,5-Dimethyl-1H-pyrrol-2-ylmethylene)-4-methoxy-5H-pyrrol-2-yl]-3-morpholin-4-ylmethyl-1H-indole]
5.37	5.69	COC1=CC(c2[nH]c3ccccc3c2I)=N/C1=C\c1[nH]c(C)c(I)c1C [Compound 17, 3-Iodo-2-[5-(4-iodo-3,5-dimethyl-1H-pyrrol-2-ylmethylene)-4-methoxy-5H-pyrrol-2-yl]-1H-indole]
50	11.1	COC1=CC(c2[nH]c3ccccc3c2C(=O)NCCCO)=N/C1=C\c1[nH]c(C)cc1C [Compound 48, 2-[5-(3,5-Dimethyl-1H-pyrrol-2-ylmethylene)-4-methoxy-5H-pyrrol-2-yl]-1H-indole-3-carboxylic acid (3-hydroxy-propyl)-amide]
1.88	1.76	COC1=CC(c2[nH]c3ccccc3c2CN2CCN(c3ccccc3)CC2)=N/C1=C\c1[nH]c(C)cc1C [Compound 8, 2-[5-(3,5-Dimethyl-1H-pyrrol-2-ylmethylene)-4-methoxy-5H-pyrrol-2-yl]-3-(4-phenyl-piperazin-1-ylmethyl)-1H-indole]
5.84	5.6	COC1=CC(c2cc3c(O)cccc3[nH]2)=N/C1=C\c1[nH]c(C)cc1C [Compound 59, 2-[5-(3,5-Dimethyl-1H-pyrrol-2-ylmethylene)-4-methoxy-5H-pyrrol-2-yl]-1H-indol-4-ol]
7.19	6.46	COC1=CC(c2[nH]c3ccccc3c2C(=O)c2ccc(-c3ccccn3)s2)=N/C1=C\c1[nH]c(C)cc1C [Compound 22, {2-[5-(3,5-Dimethyl-1H-pyrrol-2-ylmethylene)-4-methoxy-5H-pyrrol-2-yl]-1H-indol-3-yl}-(5-pyridin-2-yl-thiophen-2-yl)-methanone]
1.35	1.29	COC1=CC(c2[nH]c3ccccc3c2CO)=N/C1=C\c1[nH]c(C)cc1C [Compound 37]
7.98	7.23	CCOC(=O)C(=O)c1c(C)[nH]c(/C=C2\N=C(c3[nH]c4ccccc4c3C(=O)C(=O)OCC)C=C2OC)c1C [Compound 20, {2-[5-(4-Ethoxyoxalyl-3,5-dimethyl-1H-pyrrol-2-ylmethylene)-4-methoxy-5H-pyrrol-2-yl]-1H-indol-3-yl}-oxo-acetic acid ethyl ester]
13.3	14.2	COC1=CC(c2cc3ccccc3n2COC(=O)C(C)(C)C)=N/C1=C\c1[nH]c(C)cc1C [Compound 64, 2,2-Dimethyl-propionic acid 2-[5-(3,5-dimethyl-1H-pyrrol-2-ylmethylene)-4-methoxy-5H-pyrrol-2-yl]-indol-1-ylmethyl ester]
1.28	1.26	COC1=CC(c2cc3ccccc3n2C(=O)OCC(O)CO)=N/C1=C\c1[nH]c(C)cc1C (stereo not drawn) [Compound 44, 2-[5-(3,5-Dimethyl-1H-pyrrol-2-ylmethylene)-4-methoxy-5H-pyrrol-2-yl]-indole-1-carboxylic acid 2,3-dihydroxy-propyl ester]
0.494	0.583	COC1=CC(c2cc3c(OC(=O)OC(C)(C)C)cccc3[nH]2)=N/C1=C\c1[nH]c(C)cc1C [Compound 36, Carbonic acid tert-butyl ester 2-[5-(3,5-dimethyl-1H-pyrrol-2-ylmethylene)-4-methoxy-5H-pyrrol-2-yl]-1H-indol-4-yl ester]
15.3	10	COC1=CC(c2[nH]c3ccccc3c2C(=O)c2ccoc2)=N/C1=C\c1[nH]c(C)cc1C [Compound 27, {2-[5-(3,5-Dimethyl-1H-pyrrol-2-ylmethylene)-4-methoxy-5H-pyrrol-2-yl]-1H-indol-3-yl}-furan-3-yl-methanone]
0.717	0.44	C=CCNCc1c(C2=N/C(=C\c3[nH]c(C)cc3C)C(OC)=C2CO)[nH]c2ccccc12 [Compound 13, [2-(3-Allylaminomethyl-1H-indol-2-yl)-5-(3,5-dimethyl-1H-pyrrol-2-ylmethylene)-4-methoxy-5H-pyrrol-3-yl]-methanol]
